From the supplement of paper PMC10307832

Legend:
Assay in all cases: relative viability (nuclei count vs DMSO), 5 days (fraction); higher = more cells survive
Cediranib + Foretinib = compound: COc1cc2c(Oc3ccc4[nH]c(C)cc4c3F)ncnc2cc1OCCCN1CCCC1 [Cediranib] + COc1cc2c(Oc3ccc(NC(=O)C4(C(=O)Nc5ccc(F)cc5)CC4)cc3F)ccnc2cc1OCCCN1CCOCC1 [Foretinib] (partner 0.25 µM)
Summary of the method: (§1)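 Five library-drug doses in √10 steps were combined with a fixed anchor-drug dose, or a single drug was given alone, by pin tool to lung cancer cell lines in 1536-well plates the day after seeding. Nuclei were stained and counted after 5 days. Relative viability is the nuclei count in treated wells over that in vehicle wells, taken as the median of duplicate plates.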

Cediranib + Pictilisib = compound: COc1cc2c(Oc3ccc4[nH]c(C)cc4c3F)ncnc2cc1OCCCN1CCCC1 [Cediranib] + CS(=O)(=O)N1CCN(Cc2cc3nc(-c4cccc5[nH]ncc45)nc(N4CCOCC4)c3s2)CC1 [Pictilisib] (partner 1 µM)
Summary of the method: as §1

Decitabine + Luminespib = compound: Nc1ncn([C@H]2C[C@H](O)[C@@H](CO)O2)c(=O)n1 [Decitabine] + CCNC(=O)c1noc(-c2cc(C(C)C)c(O)cc2O)c1-c1ccc(CN2CCOCC2)cc1 [Luminespib] (partner 0.01 µM)
Summary of the method: as §1

[1] = compound: O=C(C[C@H]1NCCC[C@@H]1O)Cn1cnc2cc(Br)c(Cl)cc2c1=O (racemic) [Halofuginone] + CS(=O)(=O)N1CCN(Cc2cc3nc(-c4cccc5[nH]ncc45)nc(N4CCOCC4)c3s2)CC1 [Pictilisib] (partner 1 µM)
Summary of the method: as §1

Cell Line: NCI-H1755
- relative viability (Cediranib + Foretinib; first compound 0.04 µM): 0.97
- relative viability (Cediranib + Foretinib; first compound 0.1265 µM): 0.941
- relative viability (Cediranib + Foretinib; first compound 0.4 µM): 0.903
- relative viability (Cediranib + Foretinib; first compound 1.265 µM): 0.944
- relative viability (Cediranib + Foretinib; first compound 4 µM): 0.908
- relative viability (Cediranib + Pictilisib; first compound 0.04 µM): 0.329
- relative viability (Cediranib + Pictilisib; first compound 0.1265 µM): 0.349
- relative viability (Cediranib + Pictilisib; first compound 0.4 µM): 0.415
- relative viability (Cediranib + Pictilisib; first compound 1.265 µM): 0.392
- relative viability (Cediranib + Pictilisib; first compound 4 µM): 0.396
- relative viability (Decitabine + Luminespib; first compound 0.04 µM): 0.451
- relative viability (Decitabine + Luminespib; first compound 0.1265 µM): 0.528
- relative viability (Decitabine + Luminespib; first compound 0.4 µM): 0.441
- relative viability (Decitabine + Luminespib; first compound 1.265 µM): 0.394
- relative viability (Decitabine + Luminespib; first compound 4 µM): 0.278
- relative viability ([1]; first compound 0.001 µM): 0.478
- relative viability ([1]; first compound 0.003162 µM): 0.468
- relative viability ([1]; first compound 0.01 µM): 0.445
- relative viability ([1]; first compound 0.03162 µM): 0.493
- relative viability ([1]; first compound 0.1 µM): 0.287

Cell Line: NCI-H1703
- relative viability (Cediranib + Foretinib; first compound 0.04 µM): 0.468
- relative viability (Cediranib + Foretinib; first compound 0.1265 µM): 0.37
- relative viability (Cediranib + Foretinib; first compound 0.4 µM): 0.247
- relative viability (Cediranib + Foretinib; first compound 1.265 µM): 0.33
- relative viability (Cediranib + Foretinib; first compound 4 µM): 0.337
- relative viability (Cediranib + Pictilisib; first compound 0.04 µM): 0.226
- relative viability (Cediranib + Pictilisib; first compound 0.1265 µM): 0.209
- relative viability (Cediranib + Pictilisib; first compound 0.4 µM): 0.209
- relative viability (Cediranib + Pictilisib; first compound 1.265 µM): 0.194
- relative viability (Cediranib + Pictilisib; first compound 4 µM): 0.221
- relative viability ([1]; first compound 0.001 µM): 0.252
- relative viability ([1]; first compound 0.003162 µM): 0.264
- relative viability ([1]; first compound 0.01 µM): 0.247
- relative viability ([1]; first compound 0.03162 µM): 0.214
- relative viability ([1]; first compound 0.1 µM): 0.193

Cell Line: NCI-H522
- relative viability (Decitabine + Luminespib; first compound 0.04 µM): 1.07
- relative viability (Decitabine + Luminespib; first compound 0.1265 µM): 0.919
- relative viability (Decitabine + Luminespib; first compound 0.4 µM): 0.923
- relative viability (Decitabine + Luminespib; first compound 1.265 µM): 0.652
- relative viability (Decitabine + Luminespib; first compound 4 µM): 0.684

Cell Line: SW 900
- relative viability (Cediranib + Foretinib; first compound 0.04 µM): 0.535
- relative viability (Cediranib + Foretinib; first compound 0.1265 µM): 0.877
- relative viability (Cediranib + Foretinib; first compound 0.4 µM): 0.878
- relative viability (Cediranib + Foretinib; first compound 1.265 µM): 0.98
- relative viability (Cediranib + Foretinib; first compound 4 µM): 1.18
- relative viability (Decitabine + Luminespib; first compound 0.04 µM): 0.212
- relative viability (Decitabine + Luminespib; first compound 0.1265 µM): 0.164
- relative viability (Decitabine + Luminespib; first compound 0.4 µM): 0.169
- relative viability (Decitabine + Luminespib; first compound 1.265 µM): 0.179
- relative viability (Decitabine + Luminespib; first compound 4 µM): 0.197

Cell Line: NCI-H1792
- relative viability (Cediranib + Pictilisib; first compound 0.04 µM): 0.305
- relative viability (Cediranib + Pictilisib; first compound 0.1265 µM): 0.33
- relative viability (Cediranib + Pictilisib; first compound 0.4 µM): 0.3
- relative viability (Cediranib + Pictilisib; first compound 1.265 µM): 0.312
- relative viability (Cediranib + Pictilisib; first compound 4 µM): 0.291
- relative viability (Decitabine + Luminespib; first compound 0.04 µM): 0.565
- relative viability (Decitabine + Luminespib; first compound 0.1265 µM): 0.446
- relative viability (Decitabine + Luminespib; first compound 0.4 µM): 0.465
- relative viability (Decitabine + Luminespib; first compound 1.265 µM): 0.428
- relative viability (Decitabine + Luminespib; first compound 4 µM): 0.311
- relative viability ([1]; first compound 0.001 µM): 0.336
- relative viability ([1]; first compound 0.003162 µM): 0.228
- relative viability ([1]; first compound 0.01 µM): 0.3
- relative viability ([1]; first compound 0.03162 µM): 0.34
- relative viability ([1]; first compound 0.1 µM): 0.243

Cell Line: NCI-H1623
- relative viability (Cediranib + Foretinib; first compound 0.04 µM): 0.974
- relative viability (Cediranib + Foretinib; first compound 0.1265 µM): 0.59
- relative viability (Cediranib + Foretinib; first compound 0.4 µM): 0.793
- relative viability (Cediranib + Foretinib; first compound 1.265 µM): 0.861
- relative viability (Cediranib + Foretinib; first compound 4 µM): 0.805
- relative viability (Decitabine + Luminespib; first compound 0.04 µM): 0.51
- relative viability (Decitabine + Luminespib; first compound 0.1265 µM): 0.475
- relative viability (Decitabine + Luminespib; first compound 0.4 µM): 0.504
- relative viability (Decitabine + Luminespib; first compound 1.265 µM): 0.427
- relative viability (Decitabine + Luminespib; first compound 4 µM): 0.434

Cell Line: IA-LM
- relative viability (Cediranib + Foretinib; first compound 0.04 µM): 1.16
- relative viability (Cediranib + Foretinib; first compound 0.1265 µM): 1.32
- relative viability (Cediranib + Foretinib; first compound 0.4 µM): 1.07
- relative viability (Cediranib + Foretinib; first compound 1.265 µM): 1.26
- relative viability (Cediranib + Foretinib; first compound 4 µM): 1.33
- relative viability (Cediranib + Pictilisib; first compound 0.04 µM): 0.369
- relative viability (Cediranib + Pictilisib; first compound 0.1265 µM): 0.577
- relative viability (Cediranib + Pictilisib; first compound 0.4 µM): 0.315
- relative viability (Cediranib + Pictilisib; first compound 1.265 µM): 0.406
- relative viability (Cediranib + Pictilisib; first compound 4 µM): 0.361
- relative viability ([1]; first compound 0.001 µM): 0.415
- relative viability ([1]; first compound 0.003162 µM): 0.26
- relative viability ([1]; first compound 0.01 µM): 0.288
- relative viability ([1]; first compound 0.03162 µM): 0.256
- relative viability ([1]; first compound 0.1 µM): 0.057

Cell Line: HCC-366
- relative viability (Cediranib + Foretinib; first compound 0.04 µM): 0.935
- relative viability (Cediranib + Foretinib; first compound 0.1265 µM): 0.902
- relative viability (Cediranib + Foretinib; first compound 0.4 µM): 0.772
- relative viability (Cediranib + Foretinib; first compound 1.265 µM): 0.94
- relative viability (Cediranib + Foretinib; first compound 4 µM): 1.01
- relative viability (Cediranib + Pictilisib; first compound 0.04 µM): 0.138
- relative viability (Cediranib + Pictilisib; first compound 0.1265 µM): 0.148
- relative viability (Cediranib + Pictilisib; first compound 0.4 µM): 0.127
- relative viability (Cediranib + Pictilisib; first compound 1.265 µM): 0.0996
- relative viability (Cediranib + Pictilisib; first compound 4 µM): 0.17
- relative viability ([1]; first compound 0.001 µM): 0.231
- relative viability ([1]; first compound 0.003162 µM): 0.14
- relative viability ([1]; first compound 0.01 µM): 0.216
- relative viability ([1]; first compound 0.03162 µM): 0.144
- relative viability ([1]; first compound 0.1 µM): 0.184

Cell Line: HCC-78
- relative viability (Cediranib + Foretinib; first compound 0.04 µM): 0.584
- relative viability (Cediranib + Foretinib; first compound 0.1265 µM): 0.73
- relative viability (Cediranib + Foretinib; first compound 0.4 µM): 0.576
- relative viability (Cediranib + Foretinib; first compound 1.265 µM): 0.58
- relative viability (Cediranib + Foretinib; first compound 4 µM): 0.593
- relative viability (Cediranib + Pictilisib; first compound 0.04 µM): 0.24
- relative viability (Cediranib + Pictilisib; first compound 0.1265 µM): 0.204
- relative viability (Cediranib + Pictilisib; first compound 0.4 µM): 0.21
- relative viability (Cediranib + Pictilisib; first compound 1.265 µM): 0.174
- relative viability (Cediranib + Pictilisib; first compound 4 µM): 0.187
- relative viability ([1]; first compound 0.001 µM): 0.216
- relative viability ([1]; first compound 0.003162 µM): 0.193
- relative viability ([1]; first compound 0.01 µM): 0.206
- relative viability ([1]; first compound 0.03162 µM): 0.21
- relative viability ([1]; first compound 0.1 µM): 0.221

Cell Line: EBC-1
- relative viability (Cediranib + Foretinib; first compound 0.04 µM): 0.109
- relative viability (Cediranib + Foretinib; first compound 0.1265 µM): 0.107
- relative viability (Cediranib + Foretinib; first compound 0.4 µM): 0.103
- relative viability (Cediranib + Foretinib; first compound 1.265 µM): 0.104
- relative viability (Cediranib + Foretinib; first compound 4 µM): 0.0908
- relative viability (Cediranib + Pictilisib; first compound 0.04 µM): 0.417
- relative viability (Cediranib + Pictilisib; first compound 0.1265 µM): 0.516
- relative viability (Cediranib + Pictilisib; first compound 0.4 µM): 0.402
- relative viability (Cediranib + Pictilisib; first compound 1.265 µM): 0.407
- relative viability (Cediranib + Pictilisib; first compound 4 µM): 0.467
- relative viability ([1]; first compound 0.001 µM): 0.441
- relative viability ([1]; first compound 0.003162 µM): 0.31
- relative viability ([1]; first compound 0.01 µM): 0.263
- relative viability ([1]; first compound 0.03162 µM): 0.195
- relative viability ([1]; first compound 0.1 µM): 0.101

Cell Line: NCI-H1299
- relative viability (Cediranib + Foretinib; first compound 0.04 µM): 1.1
- relative viability (Cediranib + Foretinib; first compound 0.1265 µM): 1.05
- relative viability (Cediranib + Foretinib; first compound 0.4 µM): 1.13
- relative viability (Cediranib + Foretinib; first compound 1.265 µM): 1.1
- relative viability (Cediranib + Foretinib; first compound 4 µM): 1.15
- relative viability (Cediranib + Pictilisib; first compound 0.04 µM): 0.866
- relative viability (Cediranib + Pictilisib; first compound 0.1265 µM): 0.844
- relative viability (Cediranib + Pictilisib; first compound 0.4 µM): 0.719
- relative viability (Cediranib + Pictilisib; first compound 1.265 µM): 0.853
- relative viability (Cediranib + Pictilisib; first compound 4 µM): 0.748
- relative viability ([1]; first compound 0.001 µM): 1.01
- relative viability ([1]; first compound 0.003162 µM): 0.806
- relative viability ([1]; first compound 0.01 µM): 0.619
- relative viability ([1]; first compound 0.03162 µM): 0.232
- relative viability ([1]; first compound 0.1 µM): 0.077
